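Step 1: Grow cells in 96-well plates. Step 2: Expose to compound for 48 hours at 5 concentrations. Step 3: Interpolate endpoints linearly; if unreached, use highest concentration. GI50 marks 50% less growth. The concentration for full growth arrest is given as TGI.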
Key:
Assay in all cases: inhibition of tumour cell growth, NCI panel, 48 h
[1] = tested on: UO-31 renal
[2] = tested on: TK-10 renal
[3] = tested on: HT29 colon
[4] = tested on: UACC-257 melanoma
[5] = tested on: OVCAR-3 ovarian
[6] = tested on: NCI-H460 lung
[7] = tested on: OVCAR-8 ovarian
[8] = tested on: EKVX NSCLC
[9] = tested on: 786-0 renal
[10] = tested on: LXFL 529 NSCLC
[11] = tested on: DLD-1 colon
[12] = tested on: HOP-62 NSCLC
[13] = tested on: M14 melanoma
[14] = tested on: SK-MEL-5 melanoma
[15] = tested on: HCT-116 colon
[16] = tested on: LOX IMVI melanoma
[17] = tested on: ACHN renal
[18] = tested on: SNB-19 CNS
[19] = tested on: A549 NSCLC
[20] = tested on: SK-MEL-2 melanoma
[21] = tested on: SN12C renal
[22] = tested on: NCI-H522 lung
[23] = tested on: KM12 colon
[24] = tested on: NCI-H23 lung
[25] = tested on: HOP-92 NSCLC
[26] = tested on: OVCAR-4 ovarian
[27] = tested on: SF-295 CNS
[28] = tested on: HCT-15 colon
[29] = tested on: DMS 273 small cell lung
[30] = tested on: IGROV1 ovarian
[31] = tested on: SF-539 CNS
[32] = tested on: U251 CNS
[33] = tested on: HCC-2998 colon
[34] = tested on: M19-MEL melanoma
[35] = tested on: SNB-78 CNS
[36] = tested on: UACC-62 melanoma
[37] = tested on: SW-620 colon
[38] = tested on: CAKI-1 renal
[39] = tested on: SF-268 CNS
[40] = tested on: SK-MEL-28 melanoma
[41] = tested on: KM20L2 colon
[42] = tested on: SK-OV-3 ovarian
[43] = tested on: CCRF-CEM leukemia
[44] = tested on: SNB-75 CNS
[45] = tested on: DMS 114 small cell lung
[46] = tested on: NCI-H226 lung
[47] = tested on: COLO 205 colon
[48] = tested on: MALME-3M melanoma
[49] = tested on: OVCAR-5 ovarian
[50] = tested on: SR leukemia
[51] = tested on: RXF 393 renal
[52] = tested on: MOLT-4 leukemia
[53] = tested on: PC-3 prostate
[54] = tested on: MCF7 breast
[55] = tested on: RPMI-8226 leukemia
[56] = tested on: DU-145 prostate
[57] = tested on: K-562 leukemia
[58] = tested on: T-47D breast
[59] = tested on: HS 578T breast
[60] = tested on: HL-60(TB) leukemia
[61] = tested on: BT-549 breast
[62] = tested on: MDA-MB-231 breast
[63] = tested on: MDA-N
[64] = tested on: A498 renal
[65] = tested on: NCI/ADR-RES ovarian
[66] = tested on: MDA-MB-435

Cc1ccc(C(=O)Nc2ccccc2)cc1N=NN(C)C gave a TGI [1] of over 100 µM, a TGI [2] of over 100 µM and a TGI [3] of over 100 µM. It also gave a TGI [4] of over 100 µM, a TGI [5] of over 100 µM and a TGI [6] of over 100 µM. It also gave a TGI [7] of over 100 µM, a TGI [8] of over 100 µM and a TGI [9] of 44 µM. For the same molecule, the TGI [10] was over 100 µM, the TGI [11] was over 100 µM and the TGI [12] was over 100 µM. For the same molecule, the TGI [13] was over 100 µM, the TGI [14] was over 100 µM and the TGI [15] was over 100 µM. It also gave a TGI [16] of over 100 µM, a TGI [17] of over 100 µM and a TGI [18] of over 100 µM. It also gave a TGI [19] of over 100 µM, a TGI [20] of over 100 µM and a TGI [21] of over 100 µM. The TGI [22] was over 100 µM, the TGI [23] was over 100 µM and the TGI [24] was over 100 µM. For the same molecule, the TGI [25] was over 100 µM, the TGI [26] was over 100 µM and the TGI [27] was over 100 µM. For the same molecule, the TGI [28] was over 100 µM, the TGI [29] was over 100 µM and the TGI [30] was over 100 µM. It also gave a TGI [31] of over 100 µM, a TGI [32] of over 100 µM and a TGI [33] of over 100 µM. It also gave a TGI [34] of over 100 µM, a TGI [35] of over 100 µM and a TGI [36] of over 100 µM. For the same molecule, the TGI [37] was over 100 µM, the TGI [38] was over 100 µM and the TGI [39] was over 100 µM. It also gave a TGI [40] of over 100 µM.
For [Cl-].[Cl-].[Cl-].[O-]c1cccc2cccnc12.[O-]c1cccc2cccnc12.[O]=[Mo], the GI50 [1] was 4.09 µM, the TGI [1] was 24.1 µM and the TGI [41] was 70.6 µM. It also gave a GI50 [2] of 15.2 µM, a TGI [2] of over 100 µM and a GI50 [3] of 2.88 µM. The TGI [3] was 11.5 µM, the GI50 [42] was 15.1 µM and the TGI [42] was 39.6 µM. The GI50 [4] was 2.1 µM, the TGI [4] was 6.69 µM and the GI50 [5] was 6.88 µM. It also gave a TGI [5] of over 100 µM, a GI50 [6] of 2.52 µM and a TGI [6] of 11.7 µM. The GI50 [7] was 2.53 µM, the TGI [7] was 12.3 µM and the GI50 [8] was 15.4 µM. It also gave a TGI [8] of 78.4 µM, a GI50 [43] of 0.35 µM and a TGI [43] of over 100 µM. The GI50 [44] was 5.08 µM, the TGI [44] was over 100 µM and the GI50 [9] was 18.5 µM. The TGI [9] was 99.8 µM, the TGI [11] was over 100 µM and the TGI [45] was 3.13 µM. It also gave a GI50 [13] of 1.81 µM, a TGI [13] of 5.48 µM and a TGI [14] of 3.89 µM. For the same molecule, the GI50 [46] was 2.28 µM, the TGI [46] was 14.2 µM and the GI50 [15] was 2.58 µM. For the same molecule, the TGI [15] was 36.4 µM, the GI50 [16] was 2.33 µM and the TGI [16] was 22 µM. It also gave a GI50 [18] of 4.87 µM, a TGI [18] of over 100 µM and a GI50 [19] of 3.59 µM. It also gave a TGI [19] of over 100 µM, a GI50 [20] of 3.37 µM and a TGI [20] of 18.1 µM. It also gave a GI50 [21] of 6.71 µM, a TGI [21] of over 100 µM and a GI50 [23] of 0.448 µM. For the same molecule, the TGI [23] was 2.08 µM, the GI50 [47] was 4.6 µM and the GI50 [24] was 2.6 µM. The TGI [24] was 8.38 µM, the GI50 [48] was 2.25 µM and the TGI [48] was 4.99 µM. For the same molecule, the GI50 [26] was 3.9 µM, the TGI [26] was 47 µM and the GI50 [27] was 2.8 µM. For the same molecule, the TGI [27] was 17.2 µM, the GI50 [28] was 2.39 µM and the TGI [28] was over 100 µM. It also gave a TGI [29] of 4.41 µM, a GI50 [49] of 2.85 µM and a TGI [49] of 8.6 µM. The TGI [30] was 35 µM, the GI50 [31] was 7.34 µM and the TGI [31] was over 100 µM. The GI50 [32] was 3.57 µM, the TGI [32] was 40.5 µM and the GI50 [33] was 2.41 µM. For the same molecule, the TGI [33] was 5.69 µM, the TGI [50] was over 100 µM and the GI50 [36] was 2.49 µM. It also gave a TGI [36] of 7.41 µM, a GI50 [37] of 1.92 µM and a TGI [37] of over 100 µM. The GI50 [51] was 2 µM, the TGI [51] was 4.89 µM and the GI50 [38] was 20.6 µM. It also gave a TGI [38] of over 100 µM, a GI50 [39] of 6.33 µM and a TGI [39] of 55.2 µM. The GI50 [40] was 2.43 µM and the TGI [40] was 9.41 µM.
With Cn1c(=O)[nH]c2nccnc2c1=O the TGI [52] was over 10 µM, the TGI [1] was over 10 µM and the TGI [2] was over 10 µM. The TGI [3] was over 10 µM, the TGI [53] was over 10 µM and the TGI [42] was over 10 µM. The TGI [4] was over 10 µM, the TGI [5] was over 10 µM and the TGI [6] was over 10 µM. It also gave a TGI [54] of over 10 µM, a TGI [7] of over 10 µM and a TGI [8] of over 10 µM. For the same molecule, the TGI [43] was over 10 µM, the TGI [55] was over 10 µM and the TGI [44] was over 10 µM. For the same molecule, the TGI [9] was over 10 µM, the TGI [12] was over 10 µM and the TGI [13] was over 10 µM. For the same molecule, the TGI [14] was over 10 µM, the TGI [46] was over 10 µM and the TGI [15] was over 10 µM. It also gave a TGI [16] of over 10 µM, a TGI [17] of over 10 µM and a TGI [18] of over 10 µM. The TGI [19] was over 10 µM, the TGI [20] was over 10 µM and the TGI [21] was over 10 µM. The TGI [22] was over 10 µM, the TGI [23] was over 10 µM and the TGI [47] was over 10 µM. For the same molecule, the TGI [24] was over 10 µM, the TGI [25] was over 10 µM and the TGI [48] was over 10 µM. The TGI [56] was over 10 µM, the TGI [26] was over 10 µM and the TGI [27] was over 10 µM. It also gave a TGI [28] of over 10 µM, a TGI [57] of over 10 µM and a TGI [58] of over 10 µM. For the same molecule, the TGI [49] was over 10 µM, the TGI [30] was over 10 µM and the TGI [31] was over 10 µM. For the same molecule, the TGI [32] was over 10 µM, the TGI [59] was over 10 µM and the TGI [33] was over 10 µM. It also gave a TGI [60] of over 10 µM, a TGI [61] of over 10 µM and a TGI [50] of over 10 µM. For the same molecule, the TGI [36] was over 10 µM, the TGI [37] was over 10 µM and the TGI [62] was over 10 µM. For the same molecule, the TGI [51] was over 10 µM, the TGI [38] was over 10 µM and the TGI [63] was over 10 µM. It also gave a TGI [64] of over 10 µM, a TGI [39] of over 10 µM and a TGI [40] of over 10 µM. It also gave a TGI [65] of over 10 µM and a TGI [66] of over 10 µM.
